Experimental data published in patent publication US20140121235A1, “Method for Treating S6K-Overexpressing Cancers” (Rush University Medical Center, priority 2012, published 2014).
Entries after “also recorded” stand apart in the source; their conditions may differ.

Legend:
Raf-1 phosphorylation = assay: Western blot of Raf-1 phosphorylation in A375 cells; format: cell-based
Description: (§1) A375 cells seeded in a 6-well plate were starved in DMEM medium containing 0.5% FBS for 2 hr and treated with the indicated concentration of A77 1726 or PLX 4720 (1 μM) for another 2 hr (A) or treated with A77 1726 (100 μM) for the indicated time (B & C). Cells were harvested and analyzed for protein phosphorylation by specific antibodies as indicated. Protein loading was monitored by stripping membrane and re-probing with antibodies against non-phosphorylated proteins. (D) Uridine fails to reverse the effect of A77 1726 on the PI-3 and MAP kinase pathways. A375 cells seeded in a 6-well plate were starved in DMEM medium containing 05% FBS for 2 hr and treated with the indicated concentration of A77 1726 in the absence or presence of uridine (200 μM). Phosphorylated and total proteins were analyzed by Western blot as described above.
Cells grown in 6-well plates were harvested and lysed in NP-40 lysis buffer (50 mM Tris-HCI (pH 8.0), 150 mM NaCl, 1% NP-40, 5 mM EDTA, 10 μg/ml aprotinin, 10 μg/ml leupeptin, and 1 mM phenylmethylsulfonyl fluoride). After incubation on ice for 30 min, the cell lysates were prepared by spinning down at 4° C., 15,000 rpm for 15 min. […]

[1] = test system: ERK1/2^T202/Y204 and MEK1/2^S217/S221 phosphorylation; assay: Western blot of MAP kinase pathway phosphorylation in A375 cells; format: cell-based; conditions: A375 cells starved in 0.5% FBS; A77 1726 or leflunomide at indicated concentrations, 2 hr
Description: as §1, with “(D) Uridine fails to reverse the effect of A77 1726 on the PI-3 and MAP kinase pathways.” left out
A375 cells seeded in 6-well plates were starved in DMEM medium containing 0.5% FBS for 2 hr and then pre-treated with vehicle (0.1% dimethyl sulfoxide), LY294002 (10 μM) (A), PPP (1 μM) (B), or the inhibitors of the MAP kinase pathway (PLX4720, 1 μM; U0126, 10 μM; PD98059, 10 μM) (C) for 1 hr. Cells were then treated with A77 1726 (100 μM) or rapamycin (20 nM) as indicated for 2 hr. Cells were harvested and analyzed for protein phosphorylation by specific antibodies as indicated. Protein loading was monitored by stripping membrane and re-probing with antibodies against non-phosphorylated proteins.
Cells grown in 6-well plates were harvested and lysed in NP-40 lysis buffer (50 mM Tris-HCI (pH 8.0), 150 mM NaCl, 1% NP-40, 5 mM EDTA, 10 μg/ml aprotinin, 10 μg/ml leupeptin, and 1 mM phenylmethylsulfonyl fluoride). After incubation on ice for 30 min, the cell lysates were prepared by spinning down at 4° C., 15,000 rpm for 15 min. After electrophoresis and transfer to Immobolin membrane, proteins of interest were probed with their specific antibodies, followed by horseradish peroxidase-conjugated goat anti-rabbit IgG and SuperSignal Western Pico enhanced chemiluminoscence substrate (Pierce Chemical Co., Rockford, Ill.).
The PI-3 and MAP kinase pathways play an important role in cell proliferation, differentiation, and cell cycle progress. Multiple genes in these two pathways are frequently mutated and have a commanding role in driving tumorigenesis and tumor cell proliferation (2; 3). […] Here we tested whether A77 1726 affected the activation of MAP and PI-3 kinase pathways. A375 cells grown in 6-well plates were starved in the media containing 0.5% FBS for 2 hr and then treated with the indicated concentration of A77 1726. […] We next explored the effect of A77 1726 in phosphorylation of the molecules in the PI-3 kinase pathway.

In the case of `C/C(O)=C(\C#N)C(=O)Nc1ccc(C(F)(F)F)cc1` [A77 1726], the “effect on Raf-1 phosphorylation” value (Raf-1 phosphorylation) is reported as “no increased Raf-1 phosphorylation; also recorded: had no effect” and the “effect on ERK1/2 and MEK phosphorylation” value [1] is reported as “rapidly and potently induced; also recorded: strongly induced”.
